Laboratory results published in ChEMBL document CHEMBL3856221, “Structural modifications of the serotonin 5-HT7 receptor agonist N-(4-cyanophenylmethyl)-4-(2-biphenyl)-1-piperazinehexanamide (LP-211) to improve in vitro microsomal stability: A case study” (Eur J Med Chem, 2016).
Activity calls are given as the source filed them. The calls are words filed in the database; no cut-off is given here.

Experiments:
D(2) dopamine receptor [1] = molecular target: T1, D(2) dopamine receptor (Homo sapiens, UniProt P14416); test: Binding affinity to dopamine D2 receptor (unknown origin)
T1 sequence (P14416 whole entry): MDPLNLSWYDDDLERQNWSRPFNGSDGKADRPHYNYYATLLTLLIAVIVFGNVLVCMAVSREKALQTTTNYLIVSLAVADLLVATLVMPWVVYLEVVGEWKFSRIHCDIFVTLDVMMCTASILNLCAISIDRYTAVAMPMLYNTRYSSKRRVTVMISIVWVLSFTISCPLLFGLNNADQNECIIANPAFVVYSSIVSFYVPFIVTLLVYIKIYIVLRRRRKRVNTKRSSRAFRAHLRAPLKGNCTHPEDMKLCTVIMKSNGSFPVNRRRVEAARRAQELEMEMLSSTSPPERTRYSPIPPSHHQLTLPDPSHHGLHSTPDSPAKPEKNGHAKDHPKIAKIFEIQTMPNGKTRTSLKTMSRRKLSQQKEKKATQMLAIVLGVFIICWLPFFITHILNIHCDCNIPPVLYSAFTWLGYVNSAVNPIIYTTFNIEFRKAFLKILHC

[2] = molecular target: T2, 5-hydroxytryptamine receptor 6 (Homo sapiens, UniProt P50406); test: Displacement of [3H]-LSD from human 5-HT6 receptor after […] by cell based assay
T2 sequence (P50406 whole entry): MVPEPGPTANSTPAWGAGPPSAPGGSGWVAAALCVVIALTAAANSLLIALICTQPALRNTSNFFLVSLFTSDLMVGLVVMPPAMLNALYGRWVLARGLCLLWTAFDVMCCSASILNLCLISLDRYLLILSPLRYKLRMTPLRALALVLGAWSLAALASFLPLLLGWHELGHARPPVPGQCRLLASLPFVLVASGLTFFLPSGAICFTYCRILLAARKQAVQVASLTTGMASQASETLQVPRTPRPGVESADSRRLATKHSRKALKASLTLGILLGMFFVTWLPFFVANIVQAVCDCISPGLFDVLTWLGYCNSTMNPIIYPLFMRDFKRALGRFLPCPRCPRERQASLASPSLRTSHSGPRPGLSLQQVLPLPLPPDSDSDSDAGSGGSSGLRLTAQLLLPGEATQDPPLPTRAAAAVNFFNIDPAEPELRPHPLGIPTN

[3] = Retention factor, logKw of compound in MeOH/0.01 M phosphate buffer at pH 7.4 by RP-HPLC method; type: physicochemical
[4] = Stability in mouse liver microsomes assessed as oxidative metabolism by measuring drug recovery at 10 uM preincubated for 10 mins followed by NADPH addition measured after 30 mins by liquid chromatographic method; type: ADME
D(2) dopamine receptor [5] = molecular target: T1, D(2) dopamine receptor; test: Displacement of [3H]raclopride from human dopamine D2L receptor expressed in HEK293 cell membranes after 1 hr by microbeta counting analysis; type: cell-based
[6] = Cmax in CD-1 mouse brain at 10 mg/kg, ip administered as single dose after 30 mins by LC/MS analysis; type: ADME, organism-based; design: dose 10 mg/kg, route intraperitoneal
[7] = Drug uptake in CD-1 mouse plasma at 10 mg/kg, ip administered as single dose measured up to 4 hrs by LC/MS analysis; type: ADME, organism-based; conditions: in vivo
[8] = molecular target: 5-hydroxytryptamine receptor 7 (Mus musculus) (UniProt P32304); test: Agonist activity at 5-HT7 receptor in embryonic day 15 C57BL/6 mouse striatum assessed as increase in neurite length at 20 nM after 30 mins by DAPI staining based microscopy relative to control
Sequence of 5-hydroxytryptamine receptor 7 (Mus musculus) (P32304 whole entry): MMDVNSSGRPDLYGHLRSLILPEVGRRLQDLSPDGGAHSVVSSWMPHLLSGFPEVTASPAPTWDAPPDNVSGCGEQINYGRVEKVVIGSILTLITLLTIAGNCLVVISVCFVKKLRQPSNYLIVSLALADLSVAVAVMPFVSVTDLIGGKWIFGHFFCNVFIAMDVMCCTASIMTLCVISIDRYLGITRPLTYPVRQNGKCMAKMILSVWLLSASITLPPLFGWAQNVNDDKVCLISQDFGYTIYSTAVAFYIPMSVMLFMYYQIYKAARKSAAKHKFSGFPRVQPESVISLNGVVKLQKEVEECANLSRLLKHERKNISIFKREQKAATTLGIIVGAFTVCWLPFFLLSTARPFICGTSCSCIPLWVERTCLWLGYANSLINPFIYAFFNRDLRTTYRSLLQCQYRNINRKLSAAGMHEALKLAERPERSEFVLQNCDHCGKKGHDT

[9] = Elimination half life in CD-1 mouse brain at 10 mg/kg, ip administered as single dose by LC/MS analysis; type: ADME, organism-based; conditions: read-out: beta t1/2 (converted)
[10] = molecular target: T3, 5-hydroxytryptamine receptor 1A (Homo sapiens, UniProt P08908); test: Displacement of [3H]-8-OH-DPAT from human 5-HT1A receptor expressed in HEK293 cell membranes after 1 hr by microbeta counting analysis
T3 sequence (P08908 whole entry): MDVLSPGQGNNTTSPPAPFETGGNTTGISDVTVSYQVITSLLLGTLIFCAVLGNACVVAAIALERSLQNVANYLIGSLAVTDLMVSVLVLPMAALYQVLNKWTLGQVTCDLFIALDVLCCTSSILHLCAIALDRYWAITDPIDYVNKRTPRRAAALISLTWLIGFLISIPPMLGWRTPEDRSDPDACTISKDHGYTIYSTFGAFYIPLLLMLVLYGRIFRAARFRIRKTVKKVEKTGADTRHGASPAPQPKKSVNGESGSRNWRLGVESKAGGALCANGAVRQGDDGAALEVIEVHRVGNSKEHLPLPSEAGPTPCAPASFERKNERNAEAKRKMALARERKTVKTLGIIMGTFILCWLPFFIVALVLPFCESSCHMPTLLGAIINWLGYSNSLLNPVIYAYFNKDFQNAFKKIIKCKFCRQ

[11] = molecular target: 5-hydroxytryptamine receptor 7 (Mus musculus) (UniProt P32304); test: Agonist activity at 5-HT7 receptor in embryonic day 15 C57BL/6 mouse striatum assessed as increase in neurite length at 20 nM up to 4 hrs by DAPI staining based microscopy relative to control
[12] = molecular target: T2, 5-hydroxytryptamine receptor 6; test: Displacement of [3H]-LSD from human 5-HT6 receptor expressed in HEK293 cell membranes after 1 hr by microbeta counting analysis
[13] = Elimination half life in CD-1 mouse plasma at 10 mg/kg, ip administered as single dose by LC/MS analysis; type: ADME, organism-based; conditions: read-out: beta t1/2 (converted)
[14] = molecular target: 5-hydroxytryptamine receptor 7 (Homo sapiens, UniProt P34969); test: Displacement of [3H]-5-CT from human 5-HT7b receptor expressed in HEK293 cell membranes after 1 hr by microbeta counting analysis
Sequence of 5-hydroxytryptamine receptor 7 (P34969 whole entry): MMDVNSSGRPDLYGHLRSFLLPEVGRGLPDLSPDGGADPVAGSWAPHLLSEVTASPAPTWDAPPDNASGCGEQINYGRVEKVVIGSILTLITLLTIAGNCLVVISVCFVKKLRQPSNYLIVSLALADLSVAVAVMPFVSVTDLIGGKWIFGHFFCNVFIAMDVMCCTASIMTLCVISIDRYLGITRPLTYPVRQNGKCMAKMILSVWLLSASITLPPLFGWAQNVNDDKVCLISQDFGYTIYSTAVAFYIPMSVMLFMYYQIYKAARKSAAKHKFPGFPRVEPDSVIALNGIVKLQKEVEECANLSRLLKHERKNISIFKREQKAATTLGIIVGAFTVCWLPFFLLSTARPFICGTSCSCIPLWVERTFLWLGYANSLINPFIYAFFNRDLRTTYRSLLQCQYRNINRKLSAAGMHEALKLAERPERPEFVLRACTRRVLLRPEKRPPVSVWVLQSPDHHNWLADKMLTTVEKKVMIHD

[15] = Displacement of [3H]-prazosin from adrenergic alpha 1 receptor in pig brain cortical membranes after 50 mins by microbeta counting analysis; type: ADME, cell membranes, Sus scrofa
[16] = Cmax in CD-1 mouse plasma at 10 mg/kg, ip administered as single dose after 30 mins by LC/MS analysis; type: ADME, organism-based; design: dose 10 mg/kg, route intraperitoneal
[17] = Half life in mouse liver microsomes in presence of NADPH by liquid chromatographic method; type: ADME; conditions: microsomes
[18] = Ratio of drug uptake in CD-1 mouse brain to plasma at 10 mg/kg, ip administered as single dose by LC/MS analysis; type: ADME, organism-based; conditions: read-out: BPR
[19] = molecular target: 5-hydroxytryptamine receptor 7 (Mus musculus) (UniProt P32304); test: Agonist activity at 5-HT7 receptor in embryonic day 15 C57BL/6 mouse cortex assessed as increase in neurite length at 20 nM up to 24 hrs by DAPI staining based microscopy; type: tissue-based
[20] = molecular target: 5-hydroxytryptamine receptor 7 (Mus musculus) (UniProt P32304); test: Agonist activity at 5-HT7 receptor in embryonic day 15 C57BL/6 mouse cortex assessed as increase in neurite length at 20 nM after 30 mins by DAPI staining based microscopy relative to control; type: tissue-based
[21] = Half life in ip dosed mouse; conditions: in vivo

SMILES: N#Cc1ccc(CNC(=O)CCCCCN2CCN(c3ccccc3-c3ccccc3)CC2)cc1
- Ki (D(2) dopamine receptor [1]): 242 nM
- Ki [2]: 1570 nM
- logKw [3]: 0.58
- remaining at 0.5 h, 10 µM ([4]; liver microsomes, read-out: Drug recovery): 20%

SMILES: COc1ccc(-c2cc(F)ccc2N2CCN(CCCCCC(=O)NCc3ccc(C#N)cc3)CC2)cc1
- Ki (D(2) dopamine receptor [5]): 522 nM
- Cmax [6]: 515 ng/mL
- Drug uptake [7]: Active
- Activity [8]: 124%
- half-life [9]: 1.02 h
- Ki [10]: 771 nM
- Activity [11]: 126%
- Ki [12]: 614 nM
- half-life [13]: 1.07 h
- Ki [14]: 25.5 nM
- logKw [3]: 0.52
- Ki [15]: 6.6 nM
- Cmax [16]: 1170 ng/mL
- t1/2 [17]: 0.75 h
- Kp [18]: 0.5
- Drug recovery ([4]; microsomes, 0.5 h, 10 µM): 27%
- Activity [19]: Active
- Activity [20]: 130%

SMILES: O=C1CCc2ccc(OCCCCN3CCN(c4cccc(Cl)c4Cl)CC3)cc2N1 [ARIPIPRAZOLE]
- half-life [21]: 4.4 h
